Test results taken from patent publication EP4293019A1, “4-SUBSTITUTED (1H-BENZO[D]IMIDAZOL-2-YL)-1H-PYRAZOLES AS BUB1 INHIBITORS USEFUL FOR TREATING CANCERS” (Netherlands Translational Research Center Holding B.V., priority 2022, dated 2023).

What was measured:
[1] = biological target: T1, hBUB1 (Homo sapiens, UniProt O43683); assay: hBUB1 kinase activity assay (biochemical fluorescence polarization assay, IMAP); conditions: BUB1/BUB3 3.26 nM, ATP 15 µM, BUB1/BUB3 substrate 75 nM; N=2, n=2; read-out: hBUB1 pIC50 (converted)
T1 construct: purchased Carna Biosciences 05-187
Experimental: This protocol describes how the Kinase Activity Assay was performed to determine pIC50 values of compounds of general formula (I) against hBUB1.
Assays were performed in 384-well plates (Greiner, black, flat bottom, 781076) by sequential addition (final concentrations are indicated) of inhibitor (5 µL, 0.3 nM - 1 µM or 3 nM - 10 µM), BUB1/BUB3 (5 µL, 3.26 nM, Carna Biosciences (05-187), lot: 15CBS-0644 D), ATP (5 µL, 15 µM) and BUB1/BUB3 substrate (5 µL, 75 nM, Carna Biosciences (05-187MSSU)), all as 4x working solutions. The final concentration of DMSO was 1%. Assay reactions were stopped by addition of IMAP progressive binding reagent (20 µL, 1200x diluted, Molecular Devices (R8155), lot: 3117896). Each assay included the following controls: (i) a background control (treated with vehicle instead of inhibitor and BUB1/BUB3 substrate), (ii) MIN controls (treated with 5 µM BAY1816032 (MedChem Express) as inhibitor, used as 0% BUB1 activity) and (iii) MAX controls (treated with vehicle instead of inhibitor, used as 100% BUB1 activity). All inhibitors were tested in two separate assays and all inhibitor concentrations were tested in duplicate per assay (N=2, n=2).
For each assay, assay buffer (AB) was freshly prepared and consisted of 20 mM HEPES (prepared by diluting 1 M HEPES, pH 7.2), 5 mM MgCl2, 0.01% Tween-20 and 1 mM DTT. Stocks of inhibitors (in DMSO) were diluted in AB to obtain 4x working solutions (4% DMSO) and 5 µL was added to the assay plate. BUB1/BUB3 (3.26 µM (486 µg/mL) in storage buffer) was diluted in AB to obtain 13.0 nM of which 5 µL was added to all wells of the assay plate. The assay plate was centrifuged (1 min, 200 g) and incubated at RT for 30 min. ATP (4 mM in MilliQ) was diluted in AB to obtain 60 µM of which 5 µL was added to each well. BUB1/BUB3 substrate (1 mM) was diluted in 20 mM HEPES (prepared by diluting 1 M HEPES (pH 7.2) in MilliQ) to obtain 80 µM (this solution was freshly prepared every assay) and further diluted in AB to obtain 300 nM after which 5 µL was added to each well of the assay plate except for background control wells. The assay plate was centrifuged (1 min, 200 g) and incubated at RT in the dark for 180 min. IMAP progressive binding buffer A (5x) and IMAP progressive binding buffer B (5x) were mixed in a ratio to obtain 30% buffer A and 70% buffer B, which was subsequently diluted 5x in MilliQ. IMAP progressive binding reagent was diluted 600x in aforementioned mixture of buffer A and B (to obtain a 2x working solution) of which 20 µL was added to each well of the assay plate. The assay plate was centrifuged (1 min, 200 g) and incubated at RT in the dark for 90 min. Fluorescence polarization was measured on a CLARIOstar plate reader using the following settings: (i) optic settings → excitation = F: 482-16, dichroic = F: LP 504, emission = F: 530-40, (ii) optic = top optic, (iii) speed/precision = maximum precision, (iv) focus adjustment was performed for every assay and (v) gain adjustment was done by setting the target mP value to 35 mP for one of the MIN control wells. Data was normalized between MIN and MAX controls and data was plotted using GraphPad Prism 8.0 using "Nonlinear regression (curve fit)" and "log(inhibitor) vs. normalized response - Variable slope" to determine pIC50 values.
Inhibition is indicated as pIC50 ("-" = not measured). Compounds having an activity designated as "A" provided an pIC50 ≥ 7.0 (IC50 ≤100 nM); compounds having an activity designated as "B" provided an 6.3 ≤ pIC50 < 7.0 (100 nM<IC50 ≤ 500 nM); compounds having an activity designated as "C" provided an 6.0 ≤ pIC50 < 6.3 (500 nM < IC50 ≤ 1 µM); compounds having an activity designated as "D" provided an 6.0 < pIC50 ≤ 5.0 (1 µM < IC50 ≤ 10 µM); and compounds having an activity designated as "E" provided an pIC50 < 5.0 (IC50 >10 µM).

[2] = tested on: U2OS cells; assay: Cellular proliferation assay (SRB proliferation assay); assay type: cell-based; conditions: Homo sapiens, 72 h treatment, SRB staining, N=2, n=3
Experimental: This protocol describes how the Cellular Proliferation Assay was performed to determine pIC50 values of compounds of general formula (I) against U2OS cells.
U2OS (human osteosarcoma) cells were purchased at ATCC and were tested on regular basis for mycoplasma contamination. Cultures were discarded after 2-3 months of use. Cells were cultured at 37°C under 7% CO2 in DMEM (Sigma Aldrich, D6546) supplemented with GlutaMAX (2 mM, ThermoFisher), 10% (v/v) heat-inactivated newborn calf serum (Seradigm), penicillin and streptomycin (200 µg/mL each, Duchefa) (complete medium). Medium was refreshed every 2-3 days and cells were passaged by trypsinization twice a week at 80-90% confluence. Cell viability was assessed by Trypan Blue exclusion and cell quantification using a TC20™ Automated Cell Counter (Bio-Rad).
Assays were performed in 96-well plates (Greiner, Cellstar, 655180) by seeding (day 0), treatment (day 1) and subsequent incubation for 72 h. Cells were fixed, stained and staining was subsequently dissolved after which absorbance was measured. Each assay included the following controls: (i) a background control (to which no cells were added), (ii) t0 controls (separate assay plate in which cells were fixed on day 1, used as 0% proliferation), (iii) nontreated controls (present in each assay plate, treated with vehicle and used as 100% proliferation). Cells were treated with different concentrations of indicated inhibitor. All inhibitors were tested in two separate assays and all inhibitor concentrations were tested in triplicate per assay (N=2, n=3).
For each assay, U2OS cells from 10 cm dishes were seeded into 96-well plates (3,000 cells/well) and subsequently incubated overnight to allow for cell adherence. Stocks of inhibitor and vehicle (all in DMSO) were diluted in complete medium to obtain 2x working solutions (1% DMSO). Cell medium was replaced by fresh complete medium (50 µL), treatment was started by addition of the 2x working solutions (50 µL) and plates were incubated at 37°C for 72 h. Cell medium was replaced by fresh serum free medium (100 µL) and cells were fixed by addition of 30 µL 50% (w/v) aq. trichloroacetic acid after which the plates were incubated at 4°C for 60 min. Wells were emptied by shaking the plates upside down after which wells were washed three times with demineralized water and air-dried overnight. To each well, 60 µL of SRB solution (0.4% (w/v) in 1% aq. acetic acid) was added and plates were incubated for 30 min. The excess SRB was removed and the wells were washed three times with 1% aq. acetic acid and air-dried overnight. Bound SRB was redissolved by addition of 150 µL 10 mM TRIS (free-base) and absorbance was measured at 540 nm on a CLARIOstar plate reader. Data was normalized between t0 and nontreated controls and plotted using GraphPad Prism 8.0 using "Nonlinear regression (curve fit)" and "log(inhibitor) vs. normalized response - Variable slope" to determine pIC50 values.
Inhibition is indicated as pIC50 ("-" = not measured). Compounds having an activity designated as "A" provided an pIC50 ≥ 6.0 (IC50 ≤1 µM); compounds having an activity designated as "B" provided an 5.3 ≤ pIC50 < 6.0 (1 µM<IC50 ≤ 5 µM); compounds having an activity designated as "C" provided an 5.0 ≤ pIC50 < 5.3 (5 µM < IC50 ≤ 10 µM); compounds having an activity designated as "D" provided an 5.0 < pIC50 ≤ 4.7 (10 µM < IC50 ≤ 20 µM); and compounds having an activity designated as "E" provided an pIC50 < 4.7 (IC50 >20 µM).

T1 sequence (O43683 whole entry): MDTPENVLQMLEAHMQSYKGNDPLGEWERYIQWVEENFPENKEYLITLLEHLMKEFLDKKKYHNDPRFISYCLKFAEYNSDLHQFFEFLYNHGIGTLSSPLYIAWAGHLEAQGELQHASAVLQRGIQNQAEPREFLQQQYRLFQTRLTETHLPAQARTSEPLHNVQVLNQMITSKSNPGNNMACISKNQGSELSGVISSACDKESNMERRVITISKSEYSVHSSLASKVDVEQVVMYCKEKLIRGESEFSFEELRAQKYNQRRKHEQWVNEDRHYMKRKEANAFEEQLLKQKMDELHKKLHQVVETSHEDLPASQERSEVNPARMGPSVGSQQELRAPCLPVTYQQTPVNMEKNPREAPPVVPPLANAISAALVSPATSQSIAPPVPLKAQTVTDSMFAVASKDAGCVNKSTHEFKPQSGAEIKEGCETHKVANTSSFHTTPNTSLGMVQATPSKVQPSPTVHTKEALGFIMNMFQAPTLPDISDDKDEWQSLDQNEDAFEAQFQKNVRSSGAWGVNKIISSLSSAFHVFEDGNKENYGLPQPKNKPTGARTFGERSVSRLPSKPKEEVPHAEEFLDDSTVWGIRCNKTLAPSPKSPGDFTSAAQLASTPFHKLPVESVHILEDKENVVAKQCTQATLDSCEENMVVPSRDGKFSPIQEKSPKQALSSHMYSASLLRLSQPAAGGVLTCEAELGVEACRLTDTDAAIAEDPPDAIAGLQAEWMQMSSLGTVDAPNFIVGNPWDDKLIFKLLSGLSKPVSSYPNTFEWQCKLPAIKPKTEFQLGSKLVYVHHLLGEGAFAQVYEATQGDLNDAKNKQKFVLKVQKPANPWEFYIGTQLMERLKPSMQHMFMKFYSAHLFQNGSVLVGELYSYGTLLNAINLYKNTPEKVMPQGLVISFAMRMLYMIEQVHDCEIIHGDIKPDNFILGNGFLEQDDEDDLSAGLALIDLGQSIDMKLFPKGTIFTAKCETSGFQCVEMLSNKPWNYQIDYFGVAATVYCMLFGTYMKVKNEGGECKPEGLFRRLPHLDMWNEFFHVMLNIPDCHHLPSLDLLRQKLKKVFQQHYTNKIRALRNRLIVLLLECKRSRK
T1 sequence (O43684 whole entry partner): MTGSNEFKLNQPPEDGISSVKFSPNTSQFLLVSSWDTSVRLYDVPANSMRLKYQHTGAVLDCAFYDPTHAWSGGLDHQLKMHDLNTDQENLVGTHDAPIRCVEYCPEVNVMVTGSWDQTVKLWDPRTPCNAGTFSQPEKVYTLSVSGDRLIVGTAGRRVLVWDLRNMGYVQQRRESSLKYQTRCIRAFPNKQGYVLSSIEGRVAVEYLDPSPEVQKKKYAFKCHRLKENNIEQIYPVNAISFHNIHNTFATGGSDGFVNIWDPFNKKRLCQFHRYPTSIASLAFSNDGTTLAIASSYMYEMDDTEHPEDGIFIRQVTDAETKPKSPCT

| SMILES | IC50 [1] | IC50 [2] |
| --- | --- | --- |
| COc1cnc(-c2cccc(C#N)c2)nc1Nc1c[nH]nc1-c1nc2cc(CN3CCOCC3)ccc2[nH]1 [Compound 54, 3-(5-Methoxy-4-((3-(5-(morpholinomethyl)-1H-benzo[d]imidazol-2-yl)-1H-pyrazol-4-yl)amino)pyrimidin-2-yl)benzonitrile] | ≤ 100 nM | 10000 to 20000 nM |
| FC(F)(F)c1cccc(-c2nccc(Nc3c[nH]nc3-c3nc4cc(CN5CCOCC5)ccc4[nH]3)n2)c1 [Compound 43, N-(3-(5-(Morpholinomethyl)-1H-benzo[d]imidazol-2-yl)-1H-pyrazol-4-yl)-2-(3-(trifluoromethyl)phenyl)pyrimidin-4-amine] | 501 to 1000 nM | 1000 to 5010 nM |
| c1ccc(-c2nccc(Nc3c[nH]nc3-c3nc4cc(CN5CCOCC5)ccc4[nH]3)n2)cc1 [Compound 16, N-(3-(5-(morpholinomethyl)-1H-benzo[d]imidazol-2-yl)-1H-pyrazol-4-yl)-2-phenylpyrimidin-4-amine] | 100 to 501 nM | 1000 to 5010 nM |
| COc1cnc(-c2cc(Cl)ccc2F)nc1Nc1c[nH]nc1-c1nc2cc(CN3CCOCC3)ccc2[nH]1 [Compound 57, 2-(5-Chloro-2-fluorophenyl)-5-methoxy-N-(3-(5-(morpholinomethyl)-1H-benzo[d]imidazol-2-yl)-1H-pyrazol-4-yl)pyrimidin-4-amine] | ≤ 100 nM | ≤ 1000 nM |

Further lines, results first:

| IC50 [1] | IC50 [2] | SMILES |
| --- | --- | --- |
| ≤ 100 nM | ≤ 1000 nM | COc1cnc(-c2cccc(Cl)c2F)nc1Nc1c[nH]nc1-c1nc2cc(CN3CCOCC3)ccc2[nH]1 [Compound 55, 2-(3-Chloro-2-fluorophenyl)-5-methoxy-N-(3-(5-(morpholinomethyl)-1H-benzo[d]imidazol-2-yl)-1H-pyrazol-4-yl)pyrimidin-4-amine] |
| ≤ 100 nM | ≤ 1000 nM | C#Cc1ccc(F)c(-c2ncc(OC)c(Nc3c[nH]nc3-c3nc4cc(CN5CCOCC5)ccc4[nH]3)n2)c1 [Compound 58, 2-(5-Ethynyl-2-fluorophenyl)-5-methoxy-N-(3-(5-(morpholinomethyl)-1H-benzo[d]imidazol-2-yl)-1H-pyrazol-4-yl)pyrimidin-4-amine] |
| ≤ 100 nM | ≤ 1000 nM | COc1cnc(-c2cccc(Cl)c2)nc1Nc1c[nH]nc1-c1nc2cc(CN3CCOCC3)ccc2[nH]1 [Compound 51, 2-(3-Chlorophenyl)-5-methoxy-N-(3-(5-(morpholinomethyl)-1H-benzo[d]imidazol-2-yl)-1H-pyrazol-4-yl)pyrimidin-4-amine] |
